Experimental findings from PubChem BioAssay (NCI) are described below.

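How tested: cells in 96-well plates exposed to compound for 48 hours at five concentrations. At the GI50, growth is halved. TGI: concentration producing complete growth inhibition.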 Some results are limits rather than exact numbers.

Test systems include HCT-116 colon; MCF7 breast; SW-620 colon; SK-MEL-5 melanoma; T-47D breast; SR leukemia; HL-60(TB) leukemia; MDA-MB-435; KM12 colon; RPMI-8226 leukemia.
Holding throughout (test): NCI anticancer screen, dose series, 48 h

As to `O=C(CCN1CCCC1)Nc1ccc2c(NCc3ccc(F)cc3)c3ccccc3nc2c1`, the GI50 was 0.313 µM in the experiment with HCT-116 colon; 0.314 µM with MCF7 breast; 0.353 µM in the experiment on SW-620 colon; 1440 nM in the experiment on SK-MEL-5 melanoma; 0.768 µM with T-47D breast; 349 nM with SR leukemia. The GI50 in the experiment with HL-60(TB) leukemia is 0.55 µM; in the experiment on MDA-MB-435, 0.692 µM; in the experiment with KM12 colon, 0.431 µM. In addition, the TGI with HCT-116 colon stood at 1.35 µM; with MCF7 breast, 1.31 µM; with SW-620 colon it was 1.53 µM; in the experiment with SK-MEL-5 melanoma, 2.76 µM; in the experiment with T-47D breast, 3.22 µM; in the experiment on SR leukemia it was 1.72 µM. Further, the TGI was 2.34 µM in the experiment with HL-60(TB) leukemia, 1.97 µM in the experiment on MDA-MB-435 and 1.62 µM with KM12 colon.

Take `CC(C)(O)c1ccc(N2CCN(c3nnc(Cc4ccccc4)c4ccccc34)CC2)nc1`: the GI50 in the experiment with HCT-116 colon is 8.25 µM; in the experiment with MCF7 breast it was 7.05 µM; in the experiment on SW-620 colon, 17.1 µM; in the experiment on SK-MEL-5 melanoma, 2840 nM; in the experiment with T-47D breast, 2.71 µM; in the experiment with SR leukemia, 18600 nM. Moreover, the GI50 is 7.44 µM with HL-60(TB) leukemia, 10 µM in the experiment on MDA-MB-435 and 13.2 µM with KM12 colon. The TGI in the experiment on HCT-116 colon was 54.1 µM; in the experiment with MCF7 breast, 21.7 µM; with SW-620 colon it was 38.5 µM; in the experiment with SK-MEL-5 melanoma it was 8.64 µM; in the experiment with T-47D breast, 14.6 µM; in the experiment on SR leukemia, > 100 µM. Moreover, the TGI in the experiment on HL-60(TB) leukemia came out at 31.1 µM; in the experiment with MDA-MB-435, 22.8 µM; in the experiment on KM12 colon, 29.5 µM.

With `CC1=C(C(=O)OCc2ccccc2)C(c2ccc3c(c2)OCO3)n2c(nc3ccccc32)N1` (centres undefined), the GI50 in the experiment with HCT-116 colon was 0.42 µM; with MCF7 breast it was 0.236 µM; in the experiment on SW-620 colon, 0.346 µM; in the experiment with SK-MEL-5 melanoma, 472 nM; in the experiment on T-47D breast, 0.508 µM; with SR leukemia it was 400 nM. In addition, the GI50 in the experiment with HL-60(TB) leukemia is 0.341 µM; in the experiment on MDA-MB-435, 0.0842 µM; with KM12 colon, 0.334 µM. Moreover, the TGI with HCT-116 colon, in the experiment with MCF7 breast, in the experiment on SW-620 colon, in the experiment with SK-MEL-5 melanoma, in the experiment with T-47D breast and in the experiment with SR leukemia was > 100 µM throughout. The results for the TGI in the experiment with HL-60(TB) leukemia, with MDA-MB-435 and in the experiment on KM12 colon were > 100 µM, 0.351 µM and > 100 µM, respectively.

Turning to `CC12CCC(=O)C(O1)C1C(=O)c3cc4ccccc4cc3C(=O)C12` (centres undefined), the GI50 with HCT-116 colon is 17.7 µM; in the experiment with MCF7 breast, 12.6 µM; with T-47D breast, 14.9 µM; with HL-60(TB) leukemia it was 19.5 µM; with MDA-MB-435, 17.7 µM; in the experiment on KM12 colon, 12.5 µM. Besides, the TGI with HCT-116 colon turned out to be 34.6 µM; with MCF7 breast it was 33 µM; in the experiment with T-47D breast, 39.4 µM; in the experiment on HL-60(TB) leukemia it was 48 µM; with MDA-MB-435, 34 µM; with KM12 colon, 29.5 µM.

With `c1ccc2nc(Cn3c[n+](Cc4ccc5ccccc5n4)c4ccccc43)ccc2c1`, the GI50 in the experiment with HCT-116 colon is 2.4 µM; with RPMI-8226 leukemia, 0.681 µM; with MCF7 breast, 1.91 µM; in the experiment on SW-620 colon, 3.3 µM; in the experiment on SK-MEL-5 melanoma, 1450 nM; in the experiment on T-47D breast, 0.785 µM. For the same compound, the results for the GI50 in the experiment with SR leukemia, with MDA-MB-435 and in the experiment on KM12 colon were 1690 nM, 1.63 µM and 1.61 µM, respectively. The TGI in the experiment on HCT-116 colon was determined as 12.2 µM; in the experiment on RPMI-8226 leukemia, 4.05 µM; with MCF7 breast it was 11.5 µM; with SW-620 colon, 15.4 µM; in the experiment on SK-MEL-5 melanoma it was 2.8 µM; with T-47D breast, 9.65 µM. The values for the TGI in the experiment with SR leukemia, in the experiment with MDA-MB-435 and with KM12 colon were 5.48 µM, 4.37 µM and 4.54 µM, respectively.

On to `N#CC(C#N)=Cc1ccc(-c2ccc(-c3nc4ccccc4s3)cc2)o1`, for which the GI50 with HCT-116 colon is 5.11 µM; in the experiment on MCF7 breast, 6.2 µM; in the experiment with SW-620 colon, 7.9 µM; in the experiment on SK-MEL-5 melanoma, 6010 nM; in the experiment on T-47D breast, 4.46 µM; with HL-60(TB) leukemia it was 37.4 µM. Moreover, the GI50 is 25.4 µM with MDA-MB-435 and 16.9 µM in the experiment on KM12 colon. The TGI in the experiment with HCT-116 colon was 24.9 µM; with MCF7 breast it was > 100 µM; in the experiment with SW-620 colon it was > 100 µM; in the experiment on SK-MEL-5 melanoma, 76.2 µM; in the experiment with T-47D breast, 38.2 µM; in the experiment on HL-60(TB) leukemia, > 100 µM. Further, the TGI with MDA-MB-435 is 81.8 µM; in the experiment with KM12 colon, > 100 µM.

For the compound `C=C1C(=O)O[C@@H]2C1CC(=O)C(C)CC/C=C(\C)CCC[C@H](C)[C@H]2OC(C)=O` (some centres undefined), the GI50 in the experiment with HCT-116 colon is 1.62 µM; in the experiment with RPMI-8226 leukemia, 3.99 µM; in the experiment on MCF7 breast, 4.81 µM; with SW-620 colon, 9.18 µM; in the experiment with SK-MEL-5 melanoma, 11500 nM; in the experiment with T-47D breast, 20.4 µM. The figures for the GI50 in the experiment with MDA-MB-435 and in the experiment with KM12 colon were 14.7 µM and 12.8 µM, respectively. Besides, the TGI in the experiment on HCT-116 colon was 3.62 µM; with RPMI-8226 leukemia, 19 µM; with MCF7 breast, 35.6 µM; in the experiment on SW-620 colon, 21.9 µM; in the experiment on SK-MEL-5 melanoma, 23.6 µM; with T-47D breast, 58.5 µM. The results for the TGI in the experiment on MDA-MB-435 and with KM12 colon were 28 µM and 29.1 µM, respectively.

With `CSc1nnc(CCSc2ccnc3c(C(F)(F)F)cccc23)o1`, the GI50 was 66.5 µM in the experiment with HCT-116 colon; 33.5 µM in the experiment with RPMI-8226 leukemia; > 100 µM with MCF7 breast; > 100 µM in the experiment on SW-620 colon; 46100 nM in the experiment with SK-MEL-5 melanoma; 24.9 µM with T-47D breast. Besides, the GI50 in the experiment with HL-60(TB) leukemia was 55.1 µM; in the experiment on MDA-MB-435 it was > 100 µM; in the experiment with KM12 colon, > 100 µM. Moreover, the TGI in the experiment with HCT-116 colon, with RPMI-8226 leukemia, in the experiment with MCF7 breast, in the experiment with SW-620 colon, with SK-MEL-5 melanoma and in the experiment on T-47D breast was > 100 µM in each case. Moreover, the TGI with HL-60(TB) leukemia, in the experiment on MDA-MB-435 and in the experiment on KM12 colon was > 100 µM in each case.
